Assay results taken from ChEMBL document CHEMBL3797051 (Medchemcomm, 2016).

Legend:
Histone deacetylase 8 [1] = biological target: T1, Histone deacetylase 8 (Homo sapiens, UniProt Q9BY41); experiment: Inhibition of recombinant human HDAC8 expressed in Escherichia coli assessed as hydrolase activity using fluorogenic AC-LGK-tfa-AMC as substrate measured after 60 mins by fluorescence analysis
T1 sequence (Q9BY41 whole entry): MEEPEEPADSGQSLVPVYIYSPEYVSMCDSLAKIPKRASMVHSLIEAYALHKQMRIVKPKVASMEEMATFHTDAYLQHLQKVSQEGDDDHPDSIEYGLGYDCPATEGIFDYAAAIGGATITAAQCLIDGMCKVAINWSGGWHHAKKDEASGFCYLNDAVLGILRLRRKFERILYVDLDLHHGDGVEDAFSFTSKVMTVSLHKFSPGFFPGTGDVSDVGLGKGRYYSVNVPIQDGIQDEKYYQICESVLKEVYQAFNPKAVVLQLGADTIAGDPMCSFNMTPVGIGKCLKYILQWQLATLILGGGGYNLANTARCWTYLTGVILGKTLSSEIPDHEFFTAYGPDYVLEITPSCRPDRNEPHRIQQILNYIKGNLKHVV

[2] = biological target: T2, Protein deacetylase HDAC6 (Homo sapiens, UniProt Q9UBN7); experiment: Inhibition of His-tagged recombinant human HDAC6 expressed in insect cells assessed as hydrolase activity using fluorogenic AC-LGK-ac-AMC as substrate measured after 60 mins by fluorescence analysis
T2 sequence (Q9UBN7 whole entry): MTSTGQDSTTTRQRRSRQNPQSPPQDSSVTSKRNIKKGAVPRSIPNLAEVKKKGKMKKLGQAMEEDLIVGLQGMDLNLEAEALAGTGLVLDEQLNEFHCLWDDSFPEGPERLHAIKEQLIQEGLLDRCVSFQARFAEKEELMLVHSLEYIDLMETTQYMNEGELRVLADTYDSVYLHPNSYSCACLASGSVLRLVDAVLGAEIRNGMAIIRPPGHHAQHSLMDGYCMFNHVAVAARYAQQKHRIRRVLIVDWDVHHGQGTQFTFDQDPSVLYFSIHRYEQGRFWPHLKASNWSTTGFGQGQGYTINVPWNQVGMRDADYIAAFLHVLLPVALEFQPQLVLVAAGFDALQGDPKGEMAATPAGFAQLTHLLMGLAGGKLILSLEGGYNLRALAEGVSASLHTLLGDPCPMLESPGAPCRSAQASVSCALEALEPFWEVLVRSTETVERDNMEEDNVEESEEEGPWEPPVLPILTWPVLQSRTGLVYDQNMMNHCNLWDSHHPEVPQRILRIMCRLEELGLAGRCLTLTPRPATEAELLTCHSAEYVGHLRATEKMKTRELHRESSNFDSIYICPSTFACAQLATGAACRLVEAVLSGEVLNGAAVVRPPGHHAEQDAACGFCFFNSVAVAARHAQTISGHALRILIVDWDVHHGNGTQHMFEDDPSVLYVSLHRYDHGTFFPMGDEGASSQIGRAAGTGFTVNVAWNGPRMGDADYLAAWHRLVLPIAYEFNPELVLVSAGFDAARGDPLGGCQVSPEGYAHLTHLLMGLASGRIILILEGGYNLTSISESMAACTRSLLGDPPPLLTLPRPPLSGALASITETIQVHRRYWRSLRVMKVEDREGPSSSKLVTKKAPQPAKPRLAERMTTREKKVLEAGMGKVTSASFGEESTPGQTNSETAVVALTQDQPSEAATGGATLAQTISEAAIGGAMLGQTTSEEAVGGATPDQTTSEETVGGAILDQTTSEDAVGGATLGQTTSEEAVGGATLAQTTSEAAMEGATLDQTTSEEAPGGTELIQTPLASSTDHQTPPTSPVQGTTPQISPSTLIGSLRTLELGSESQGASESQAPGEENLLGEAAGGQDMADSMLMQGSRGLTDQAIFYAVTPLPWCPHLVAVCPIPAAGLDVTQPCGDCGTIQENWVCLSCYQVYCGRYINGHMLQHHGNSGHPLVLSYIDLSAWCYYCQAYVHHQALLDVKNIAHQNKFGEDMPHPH

Histone deacetylase 4 = Histone deacetylase 4 (Homo sapiens, UniProt P56524); experiment: Inhibition of N-terminal GST-tagged recombinant human HDAC4 assessed as hydrolase activity using fluorogenic […] as substrate measured after 60 mins by fluorescence analysis
Histone deacetylase 4, sequence (P56524 whole entry): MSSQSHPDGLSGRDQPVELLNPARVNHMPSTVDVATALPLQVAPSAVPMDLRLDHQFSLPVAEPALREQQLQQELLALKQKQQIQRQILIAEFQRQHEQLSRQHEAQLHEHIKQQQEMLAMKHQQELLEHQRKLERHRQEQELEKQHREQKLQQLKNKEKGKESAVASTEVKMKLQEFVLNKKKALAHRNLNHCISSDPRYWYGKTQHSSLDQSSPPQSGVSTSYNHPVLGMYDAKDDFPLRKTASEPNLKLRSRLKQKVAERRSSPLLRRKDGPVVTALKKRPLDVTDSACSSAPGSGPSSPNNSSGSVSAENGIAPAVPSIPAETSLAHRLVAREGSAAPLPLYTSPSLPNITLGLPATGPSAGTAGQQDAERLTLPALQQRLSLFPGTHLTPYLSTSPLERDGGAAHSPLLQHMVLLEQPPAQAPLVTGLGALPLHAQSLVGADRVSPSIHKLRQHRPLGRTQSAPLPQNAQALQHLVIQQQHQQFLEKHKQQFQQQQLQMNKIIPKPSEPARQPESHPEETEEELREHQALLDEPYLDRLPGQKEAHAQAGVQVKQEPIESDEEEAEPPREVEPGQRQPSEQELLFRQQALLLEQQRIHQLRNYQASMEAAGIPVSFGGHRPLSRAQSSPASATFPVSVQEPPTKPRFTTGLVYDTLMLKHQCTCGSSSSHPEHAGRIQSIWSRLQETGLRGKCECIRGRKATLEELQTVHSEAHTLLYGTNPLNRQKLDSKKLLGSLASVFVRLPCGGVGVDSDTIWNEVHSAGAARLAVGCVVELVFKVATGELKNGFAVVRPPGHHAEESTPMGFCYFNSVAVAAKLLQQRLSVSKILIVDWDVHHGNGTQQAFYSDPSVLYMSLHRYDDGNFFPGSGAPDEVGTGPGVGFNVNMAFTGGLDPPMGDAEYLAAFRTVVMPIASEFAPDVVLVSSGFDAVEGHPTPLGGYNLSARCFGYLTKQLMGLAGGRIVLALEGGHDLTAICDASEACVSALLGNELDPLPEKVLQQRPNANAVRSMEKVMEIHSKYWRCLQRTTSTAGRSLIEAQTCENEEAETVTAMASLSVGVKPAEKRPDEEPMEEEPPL

Histone deacetylase 8 [3] = biological target: T1, Histone deacetylase 8; experiment: Inhibition of recombinant human HDAC8 expressed in Escherichia coli assessed as inhibition constant ki,1 using fluorogenic AC-LGK-tfa-AMC as substrate measured after 60 mins by fluorescence analysis

## O=C(CCCCCCC(=O)C(F)(F)F)Nc1ccccc1
Histone deacetylase 8 [1]
  Ki: 33 nM
[2]
  Ki: 4500 nM
Histone deacetylase 4
  Ki: 5.1 nM
Histone deacetylase 8 [3]
  Ki: 7300 nM
